According to patent US9776965B2, “Pyrrolidin-2-one and piperidin-2-one derivatives as 11-beta hydroxysteroid dehydrogenase inhibitors” (Janssen Pharmaceutica N.V., priority 2004, dated 2017):

How the values were obtained:
11b-HSD1 [1] = biological target: 11b-HSD1 (Homo sapiens, UniProt P28845); experiment: Enzymatic assay, 11b-HSD1 dependent conversion of cortisone into cortisol (reductase activity); assay type: biochemical; conditions: recombinant protein, 2 μM cortisone, 45 min at 37 C; for IC50: read-out: [C1] HSD1-prot Reduct Score
Procedure: The effects of compounds on 11b-HSD1 dependent conversion of cortisone into cortisol (reductase activity) was studied in a reaction mixture containing 30 mM Tris-HCl buffer pH 7.2, 180 μM NADPH, 1 mM EDTA, 2 μM cortisone, 1 μl drug and/or solvent and 11 μg recombinant protein in a final volume of 100 μl.
All incubations were performed for 45 min at 37 C in a water bath. The reaction was stopped by adding 100 μl acetonitrile containing 20 μg corticosterone as internal standard. After centrifugation, the product formation was analysed in the supernatant by HPLC on a Hypersyl BDS-C18 column using 0.05 mM ammonium acetate/methanol (50/50) as solvent. In all of the aforementioned assays, the drugs to be tested were taken from a stock solution and tested at a final concentration ranging from […] to 3.10^−9M. From the thus obtained dose response curves, the pIC50 value was calculated and scored as follows; Score 1=pIC50 value<5, Score 2=pIC50 value in the range of 5 to 6, Score 3=pIC50 value>6. (in this table NT stands for Not Tested).

11b-HSD1 [2] = biological target: T1, 11b-HSD1 (Mus musculus, UniProt P50172); experiment: Cellular assay, 11b-HSD1 activity in differentiated 3T3-L1 cells; assay type: cell-based; conditions: 4 hour pre-incubation; for IC50: read-out: [C2] HSD1 cellular 3T3-L1 Score
T1 construct: Fibroblasts were differentiated into adipocytes; endogenous in cells; host or cells: differentiated 3T3-L1 cells (ATCC-CL-173)
Procedure: The effects on 11b-HSD1 activity was measured in differentiated 3T3-L1 cells and rat hepatocytes.
Mouse fibroblast 3T3-L1 cells (ATCC-CL-173) were seeded at a density of 16500 cells/ml in 12 well plates and grown for 7 days in DMEM medium (supplemented with 10% heat inactivated foetal calf serum, 2 mM glutamine and 25 mg gentamycin) at 37 C in a humidified 5% CO2 atmosphere. Medium was refreshed twice a week. Fibroblasts were differentiated into adipocytes at 37 C in a 5% CO2 humidified atmosphere in growth medium containing 2 μg/ml insulin, 55 μg/ml IBMX and 39.2 μg/ml dexamethasone.
Following a 4 hour pre-incubation with test compound, 0.5 μCi ^3H-cortisone or dehydrocorticosterone, was added to the cultures. One hour later, the medium was extracted on Extrelut^3-columns with 15 ml diethyl ether and the extract was analysed by HPLC as described above.
As for the enzymatic assays, the compounds to be tested were taken from a stock solution and tested at a final concentration ranging from […] to 3.10^−9M. From the thus obtained dose response curves, the pIC50 value was calculated and scored as follows; Score 1=pIC50 value<5, Score 2=pIC50 value in the range of 5 to 6, Score 3=pIC50 value>6. Some of the thus obtained results are summarized in the table below (in this table NT stands for Not Tested).

Sequence of 11b-HSD1 (Homo sapiens, UniProt P28845) (P28845 whole entry): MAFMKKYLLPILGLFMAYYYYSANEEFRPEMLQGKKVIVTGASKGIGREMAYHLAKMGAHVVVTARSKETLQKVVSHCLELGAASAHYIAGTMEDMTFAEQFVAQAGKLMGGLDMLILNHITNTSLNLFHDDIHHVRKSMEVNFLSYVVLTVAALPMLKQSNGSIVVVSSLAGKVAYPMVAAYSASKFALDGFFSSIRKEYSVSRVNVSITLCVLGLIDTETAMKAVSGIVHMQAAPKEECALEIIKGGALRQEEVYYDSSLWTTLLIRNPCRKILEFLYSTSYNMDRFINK
T1 sequence (P50172 whole entry): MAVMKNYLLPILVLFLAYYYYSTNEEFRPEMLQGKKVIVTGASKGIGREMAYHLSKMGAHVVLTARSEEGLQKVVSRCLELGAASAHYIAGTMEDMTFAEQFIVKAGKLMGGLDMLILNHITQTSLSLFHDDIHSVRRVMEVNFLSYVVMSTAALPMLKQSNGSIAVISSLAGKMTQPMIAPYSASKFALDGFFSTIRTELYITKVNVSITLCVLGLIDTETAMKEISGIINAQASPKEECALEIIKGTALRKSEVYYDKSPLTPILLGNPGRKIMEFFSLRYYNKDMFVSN

SMILES | IC50 (11b-HSD1 [1]) | IC50 (11b-HSD1 [2]) | [C1] HSD1-prot Reduct Score (11b-HSD1 [1]) | [C2] HSD1 cellular 3T3-L1 Score (11b-HSD1 [2])
C[C@H](c1ccccc1)N1CCC(C)(c2ccccc2)C1=O (stereo partly drawn) [Compound 167] |  | > 10000 nM |  | 
COc1cc(C[C@@H]2CCN([C@@H](C)c3ccccc3)C2=O)ccc1OCc1ccccc1 [Compound 121] | > 10 µM | > 10000 nM |  | 
O=C1[C@H](Cc2c(Cl)cccc2Cl)CCN1[C@@H](CO)c1ccccc1 [Compound 107] | 1 to 10 µM | > 10000 nM |  | 
CC[C@@]1(Cc2ccccc2C)CCN([C@H](C)c2ccccc2)C1=O [Compound 144] | > 10 µM | > 10000 nM |  | 
C[C@@H](c1ccccc1)[C@H]1CCN([C@@H](C)c2ccccc2)C1=O [Compound 160] | < 1 µM | > 10000 nM |  | 
CO[C@H](C[C@@H]1CCN([C@@H](C)c2ccccc2)C1=O)c1ccccc1 [Compound 156] | 1 to 10 µM | 1000 to 10000 nM |  | 
Cc1ccccc1CC[C@@H]1CCN([C@@H](C)c2ccccc2)C1=O [Compound 127] | 1 to 10 µM | 1000 to 10000 nM |  | 
COc1cc(CC2(Cc3ccc(OCc4ccccc4)c(OC)c3)CCN(CCc3ccccc3)C2=O)ccc1OCc1ccccc1 [Compound 164] | > 10 µM | > 10000 nM |  | 
O=C1C(Cc2c(Cl)cccc2Cl)CCN1CCc1ccc(F)cc1 (stereo not drawn) [Compound 81] | > 10 µM |  |  | 3 (Score 3=pIC50 value>6)
C[C@H](c1ccccc1)N1CC[C@H](Cc2cccc(Cl)c2Cl)C1=O [Compound 43] | 1 to 10 µM | 1000 to 10000 nM |  | 
C[C@H](c1ccccc1)N1CC[C@@H](Cc2c(Cl)cccc2Cl)C1=O [Compound 44] | > 10 µM | 1000 to 10000 nM |  | 
COC[C@@H](c1ccccc1)N1CC[C@@H](Cc2c(Cl)cccc2Cl)C1=O [Compound 101] | > 10 µM | > 10000 nM |  | 
COc1cccc(CC2CCN(CCc3ccccc3)C2=O)c1 (stereo not drawn) [Compound 24] | 1 to 10 µM | > 10000 nM |  | 
Cc1cccc(C)c1CC1CCN(CCCc2ccccc2)C1=O (stereo not drawn) [Compound 113] | 1 to 10 µM | 1000 to 10000 nM |  | 
C[C@@H](c1ccccc1)N1CC[C@H](CCc2ccccc2)C1=O [Compound 73] | < 1 µM | 1000 to 10000 nM |  | 
COc1ccc(CCN2CCC(Cc3c(Cl)cccc3Cl)C2=O)cc1 (stereo not drawn) [Compound 92] | < 1 µM | 1000 to 10000 nM |  | 
C[C@@H](c1ccccc1)N1CC[C@@H](CCc2cccc3ccccc23)C1=O [Compound 74] | 1 to 10 µM | 1000 to 10000 nM |  | 

SMILES | IC50 (11b-HSD1 [1]) | IC50 (11b-HSD1 [2]) | [C1] HSD1-prot Reduct Score (11b-HSD1 [1]) | [C2] HSD1 cellular 3T3-L1 Score (11b-HSD1 [2])
Cc1cccc(C[C@@H]2CCN([C@@H](C)c3ccccc3)C2=O)c1 [Compound 16] | > 10 µM | 1000 to 10000 nM |  | 
COc1cc(C[C@H]2CCN([C@@H](C)c3ccccc3)C2=O)ccc1OCc1ccccc1 [Compound 122] | 1 to 10 µM | 1000 to 10000 nM |  | 
O=C1C(Cc2ccc(F)cc2Cl)CCCN1CCc1ccccc1 (stereo not drawn) [Compound 88] | 1 to 10 µM | 1000 to 10000 nM |  | 
CC[C@H](c1ccccc1)N1CC[C@H](Cc2c(Cl)cccc2Cl)C1=O [Compound 96] | 1 to 10 µM | > 10000 nM |  | 
Cc1ccc(CCN2CCC(Cc3c(Cl)cccc3Cl)C2=O)cc1 (stereo not drawn) [Compound 93] | > 10 µM | > 10000 nM |  | 
O=C1C(Cc2c(Cl)cccc2Cl)CCN1[C@H](Cc1ccccc1)c1ccccc1 (single isomer, unassigned) [Compound 103] | > 10 µM | > 10000 nM |  | 
Cc1ccc(C[C@H]2CCN([C@H](C)c3ccccc3)C2=O)cc1 [Compound 26] | > 10 µM | 1000 to 10000 nM |  | 
C[C@@H](c1ccccc1)N1CC[C@H](CCc2ccc(N(C)C)cc2)C1=O [Compound 131] | > 10 µM | 1000 to 10000 nM |  | 
O=C1C(Cc2cccc(Cl)c2Cl)CCN1Cc1ccccc1 (stereo not drawn) [Compound 58] | 1 to 10 µM | 1000 to 10000 nM |  | 
O=C1C(Cc2ccc(F)cc2Cl)CCN1CCCc1ccccc1 (stereo not drawn) [Compound 112] | 1 to 10 µM | 1000 to 10000 nM |  | 
C[C@H](c1ccccc1)N1CC[C@H](Cc2ccccc2C#N)C1=O [Compound 64] | > 10 µM | 1000 to 10000 nM |  | 
O=C1C(Cc2c(Cl)cccc2Cl)CCN1[C@@H](Cc1ccccc1)c1ccccc1 (stereo partly drawn) [Compound 102] | > 10 µM | > 10000 nM |  | 
Cc1ccc([C@@H](O)[C@H]2CCN([C@@H](C)c3ccccc3)C2=O)c(C)c1 [Compound 90] | > 10 µM | 1000 to 10000 nM |  | 
Cc1cccc(C)c1C[C@@H]1CCN([C@@H](C)c2ccccc2)C1=O [Compound 76] |  |  | 3 (Score 3=pIC50 value>6) | 2 (Score 2=pIC50 value in the range of 5 to 6)
COc1ccccc1C[C@@H]1CCN([C@H](C)c2ccccc2)C1=O [Compound 38] | > 10 µM | 1000 to 10000 nM |  | 
CC[C@@H](C[C@H]1CCN([C@@H](C)c2ccccc2)C1=O)c1ccccc1 [Compound 141] | < 1 µM | > 10000 nM |  | 

Now from value to molecule, other results behind:

IC50 (11b-HSD1 [1]) | IC50 (11b-HSD1 [2]) | [C1] HSD1-prot Reduct Score (11b-HSD1 [1]) | SMILES | [C2] HSD1 cellular 3T3-L1 Score (11b-HSD1 [2])
> 10 µM | 1000 to 10000 nM |  | Cc1ccccc1C[C@@H]1CCN([C@H](C)c2ccccc2)C1=O [Compound 62] | 
1 to 10 µM | 1000 to 10000 nM |  | CC[C@H](C[C@@H]1CCN([C@@H](C)c2ccccc2)C1=O)c1ccccc1 [Compound 138] | 
> 10 µM | 1000 to 10000 nM |  | C[C@H](c1ccccc1)N1CC[C@H](Cc2ccccc2)C1=O [Compound 36] | 
> 10 µM | 1000 to 10000 nM |  | Cc1ccccc1C[C@@]1(C)CCN([C@@H](C)c2ccccc2)C1=O [Compound 143] | 
< 1 µM | < 1000 nM |  | C[C@@H](C[C@@H]1CCN([C@@H](C)c2ccccc2)C1=O)c1ccccc1 [Compound 134] | 
> 10 µM | 1000 to 10000 nM |  | O=C1C(Cc2ccccc2)CCN1CCc1ccccc1 (stereo not drawn) [Compound 34] | 
1 to 10 µM | 1000 to 10000 nM |  | COc1ccccc1CC[C@@H]1CCN([C@@H](C)c2ccccc2)C1=O [Compound 123] | 
< 1 µM | < 1000 nM |  | C[C@@H](c1ccccc1)N1CC[C@H]([C@@](C)(O)c2ccc(CCBr)cc2)C1=O [Compound 117] | 
> 10 µM | < 1000 nM |  | CC[C@H](C[C@H]1CCN([C@@H](C)c2ccccc2)C1=O)c1ccccc1 [Compound 140] | 
1 to 10 µM | < 1000 nM |  | N#Cc1ccccc1CC1CCN(CCc2ccccc2)C1=O (stereo not drawn) [Compound 23] | 
1 to 10 µM | < 1000 nM |  | COc1ccc(C[C@H]2CCN([C@@H](C)c3ccccc3)C2=O)cc1 [Compound 21] | 
> 10 µM | 1000 to 10000 nM |  | Cc1ccccc1C[C@]1(C)CCN([C@@H](C)c2ccccc2)C1=O [Compound 142] | 
< 1 µM | < 1000 nM |  | CC[C@@H](C[C@@H]1CCN([C@@H](C)c2ccccc2)C1=O)c1ccccc1 [Compound 139] | 
 | 1000 to 10000 nM |  | C[C@@H](c1ccccc1)N1CCC(C)(c2ccccc2)C1=O (stereo partly drawn) [Compound 166] | 
1 to 10 µM | < 1000 nM |  | O=C1C(Cc2c(F)cccc2F)CCN1CCc1ccccc1 (stereo not drawn) [Compound 84] | 
> 10 µM | < 1000 nM |  | O=C1C(Cc2c(Cl)cccc2Cl)CCN1CCCc1ccccc1 (stereo not drawn) [Compound 114] | 
1 to 10 µM | < 1000 nM |  | O=C1C(Cc2cc3c(cc2Cl)OCO3)CCN1CCc1ccccc1 (stereo not drawn) [Compound 86] | 
> 10 µM | < 1000 nM |  | CC[C@@H](c1ccccc1)N1CC[C@H](Cc2c(Cl)cccc2Cl)C1=O [Compound 94] | 
1 to 10 µM | < 1000 nM |  | COc1cccc(C[C@H]2CCN([C@@H](C)c3ccccc3)C2=O)c1 [Compound 19] | 
< 1 µM | < 1000 nM |  | C[C@@H](c1ccccc1)N1CC[C@@H](Cc2cc3c(cc2Cl)OCO3)C1=O [Compound 155] | 
1 to 10 µM | < 1000 nM |  | Cc1ccccc1C[C@H]1CCN([C@H](C)c2ccccc2)C1=O [Compound 67] | 
< 1 µM | < 1000 nM |  | C[C@H](C[C@H]1CCN([C@@H](C)c2ccccc2)C1=O)c1ccccc1 [Compound 137] | 
< 1 µM | < 1000 nM |  | C[C@@H](c1ccccc1)N1CC[C@H](Cc2ccc(F)cc2Cl)C1=O [Compound 150] | 
1 to 10 µM | < 1000 nM |  | CO[C@H](C[C@H]1CCN([C@@H](C)c2ccccc2)C1=O)c1ccccc1 [Compound 157] | 
< 1 µM | < 1000 nM |  | COC[C@H](c1ccccc1)N1CC[C@@H](Cc2c(Cl)cccc2Cl)C1=O [Compound 99] | 
